With CCCCOC(=O)c1ccc(O)cc1 the solubility (mole fraction) (in acetonitrile, 281.05 K) was 0.275, the solubility (mole fraction) (in acetonitrile, 291.05 K) was 0.449 and the solubility (mole fraction) (in acetonitrile, 301.05 K) was 0.61. For the same compound, the solubility (mole fraction) (in acetonitrile, 311.05 K) was 0.753, the solubility (mole fraction) (in acetonitrile, 321.05 K) was 0.857 and the solubility (mole fraction) (in ethyl acetate, 281.05 K) was 0.424. It also gave a solubility (mole fraction) (in ethyl acetate, 291.05 K) of 0.501, a solubility (mole fraction) (in ethyl acetate, 301.05 K) of 0.591 and a solubility (mole fraction) (in ethyl acetate, 311.05 K) of 0.688. It also gave a solubility (mole fraction) (in ethyl acetate, 321.05 K) of 0.781.

— BigSolDB 2.1
